Several values for one entry are separate records, joined by “and”; a condition that tells them apart may be missing. Equal values may be shown once. Records with an inconclusive call do not appear.
System: BDF1 mice, colon carcinoma 38 sc, T/C %
Test: NCI In Vivo Anticancer Drug Screen. Data for tumor model Colon Carcinoma 38 (subcutaneous) in B6D2F1 (BDF1) mice
Settings: endpoint: median tumor weight (est.), higher = larger tumour
Method in brief: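 T/C readout: treated group (T) measurement over vehicle control group (C) measurement. Endpoint is survival or tumor size in mice bearing a transplanted tumor.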

[1] = dose: 100.0 mg/kg/injection, schedule: Q07DX002 (ip), vehicle: Klucel (hydroxypropylcellulose) (HPC)

SMILES: CNC(=O)/C=C/C1=CN2C(=O)c3ccc(C)c(O)c3NC(OC)C2C1 (centres undefined)
- T/C (dose: 0.03 mg/kg/injection, schedule: Q07DX002 (ip), vehicle: saline): 119 % of control
- T/C (dose: 0.06 mg/kg/injection, schedule: Q07DX002 (ip), vehicle: saline): 109 % of control
- T/C (dose: 0.25 mg/kg/injection, schedule: Q07DX002 (ip), vehicle: saline): 103 % of control
- T/C (dose: 0.5 mg/kg/injection, schedule: Q07DX002 (ip), vehicle: saline): 122 % of control

SMILES: Cc1c2ccncc2c(C)c2c1[nH]c1ccccc12
- T/C (dose: 10.0 mg/kg/injection, schedule: Q07DX002 (ip), vehicle: distilled water + Tween-80): 63 % of control
- T/C (dose: 12.5 mg/kg/injection, schedule: Q07DX002 (ip), vehicle: Klucel (hydroxypropylcellulose) (HPC)): 54 % of control and 75 % of control
- T/C (dose: 12.5 mg/kg/injection, schedule: Q07DX003 (ip), vehicle: saline with Tween-80): 42 % of control
- T/C (dose: 12.5 mg/kg/injection, schedule: Q07DX003 (ip), vehicle: saline): 78 % of control
- T/C (dose: 20.0 mg/kg/injection, schedule: Q07DX002 (ip), vehicle: distilled water + Tween-80): 83 % of control and 103 % of control
- T/C (dose: 20.0 mg/kg/injection, schedule: Q07DX002 (ip), vehicle: water): 61 % of control
- T/C (dose: 25.0 mg/kg/injection, schedule: Q07DX003 (ip), vehicle: saline with Tween-80): 38 % of control
- T/C (dose: 25.0 mg/kg/injection, schedule: Q07DX003 (ip), vehicle: saline): 69 % of control
- T/C (dose: 40.0 mg/kg/injection, schedule: Q07DX002 (ip), vehicle: water): 9 % of control
- T/C (dose: 50.0 mg/kg/injection, schedule: Q07DX003 (ip), vehicle: Klucel (hydroxypropylcellulose) (HPC)): 45 % of control and 55 % of control
- T/C (dose: 50.0 mg/kg/injection, schedule: Q07DX003 (ip), vehicle: saline with Tween-80): 28 % of control
- T/C (dose: 50.0 mg/kg/injection, schedule: Q07DX003 (ip), vehicle: saline): 67 % of control
- T/C (dose: 80.0 mg/kg/injection, schedule: Q07DX002 (ip), vehicle: distilled water + Tween-80): 7 % of control
- T/C [1]: 12 % of control and 25 % of control
- T/C (dose: 100.0 mg/kg/injection, schedule: Q07DX003 (ip), vehicle: Klucel (hydroxypropylcellulose) (HPC)): 12 % of control and 20 % of control
- T/C (dose: 100.0 mg/kg/injection, schedule: Q07DX003 (ip), vehicle: saline with Tween-80): 38 % of control
- T/C (dose: 100.0 mg/kg/injection, schedule: Q07DX003 (ip), vehicle: saline): 33 % of control
- T/C (dose: 200.0 mg/kg/injection, schedule: Q07DX003 (ip), vehicle: saline with Tween-80): 1 % of control
- T/C (dose: 200.0 mg/kg/injection, schedule: Q07DX003 (ip), vehicle: saline): 2 % of control

SMILES: N[C@@H](Cc1ccc(N(CCCl)CCCl)cc1)C(=O)O
- T/C (dose: 2.0 mg/kg/injection, schedule: Q07DX002 (ip), vehicle: Klucel (hydroxypropylcellulose) (HPC)): 81 % of control
- T/C (dose: 2.0 mg/kg/injection, schedule: Q07DX003 (ip), vehicle: saline): 106 % of control
- T/C (dose: 2.5 mg/kg/injection, schedule: Q07DX003 (ip), vehicle: saline with Tween-80): 51 % of control
- T/C (dose: 3.75 mg/kg/injection, schedule: Q07DX002 (ip), vehicle: Klucel (hydroxypropylcellulose) (HPC)): 54 % of control and 61 % of control
- T/C (dose: 4.0 mg/kg/injection, schedule: Q07DX002 (ip), vehicle: Klucel (hydroxypropylcellulose) (HPC)): 107 % of control
- T/C (dose: 5.0 mg/kg/injection, schedule: Q07DX003 (ip), vehicle: saline with Tween-80): 44 % of control
- T/C (dose: 7.5 mg/kg/injection, schedule: Q07DX002 (ip), vehicle: Klucel (hydroxypropylcellulose) (HPC)): 33 % of control and 37 % of control
- T/C (dose: 15.0 mg/kg/injection, schedule: Q07DX002 (ip), vehicle: Klucel (hydroxypropylcellulose) (HPC)): 16 % of control
- T/C (dose: 16.0 mg/kg/injection, schedule: Q07DX002 (ip), vehicle: saline): 8 % of control (2×) and 11 % of control

SMILES: COc1ccc(/C=C/C(=O)c2cc(C(=O)O)c(OC)cc2OC)cc1OC
- T/C (dose: 12.5 mg/kg/injection, schedule: Q07DX002 (ip), vehicle: saline): 94 % of control and 103 % of control
- T/C (dose: 25.0 mg/kg/injection, schedule: Q07DX002 (ip), vehicle: saline): 88 % of control and 94 % of control
- T/C (dose: 50.0 mg/kg/injection, schedule: Q07DX002 (ip), vehicle: saline): 114 % of control and 124 % of control
- T/C (dose: 100.0 mg/kg/injection, schedule: Q07DX002 (ip), vehicle: saline): 88 % of control and 96 % of control
- T/C (dose: 400.0 mg/kg/injection, schedule: Q07DX002 (ip), vehicle: saline): 93 % of control and 103 % of control

SMILES: O=C(Cc1cccc2c(=O)cc(-c3ccccc3)oc12)OCCN1CCOCC1
- T/C [1]: 115 % of control
- T/C (dose: 200.0 mg/kg/injection, schedule: Q07DX002 (ip), vehicle: Klucel (hydroxypropylcellulose) (HPC)): 92 % of control

Source: PubChem BioAssay AID212 (DTP/NCI, 2004)
